Target: T1, human kinase Mps-1 (Homo sapiens, UniProt P33981)
T1 construct: N-terminally GST-tagged human full length recombinant Mps-1 kinase; GST (N); purchased Invitrogen, Karslruhe, Germany PV4071
T1 sequence (P33981 1-857): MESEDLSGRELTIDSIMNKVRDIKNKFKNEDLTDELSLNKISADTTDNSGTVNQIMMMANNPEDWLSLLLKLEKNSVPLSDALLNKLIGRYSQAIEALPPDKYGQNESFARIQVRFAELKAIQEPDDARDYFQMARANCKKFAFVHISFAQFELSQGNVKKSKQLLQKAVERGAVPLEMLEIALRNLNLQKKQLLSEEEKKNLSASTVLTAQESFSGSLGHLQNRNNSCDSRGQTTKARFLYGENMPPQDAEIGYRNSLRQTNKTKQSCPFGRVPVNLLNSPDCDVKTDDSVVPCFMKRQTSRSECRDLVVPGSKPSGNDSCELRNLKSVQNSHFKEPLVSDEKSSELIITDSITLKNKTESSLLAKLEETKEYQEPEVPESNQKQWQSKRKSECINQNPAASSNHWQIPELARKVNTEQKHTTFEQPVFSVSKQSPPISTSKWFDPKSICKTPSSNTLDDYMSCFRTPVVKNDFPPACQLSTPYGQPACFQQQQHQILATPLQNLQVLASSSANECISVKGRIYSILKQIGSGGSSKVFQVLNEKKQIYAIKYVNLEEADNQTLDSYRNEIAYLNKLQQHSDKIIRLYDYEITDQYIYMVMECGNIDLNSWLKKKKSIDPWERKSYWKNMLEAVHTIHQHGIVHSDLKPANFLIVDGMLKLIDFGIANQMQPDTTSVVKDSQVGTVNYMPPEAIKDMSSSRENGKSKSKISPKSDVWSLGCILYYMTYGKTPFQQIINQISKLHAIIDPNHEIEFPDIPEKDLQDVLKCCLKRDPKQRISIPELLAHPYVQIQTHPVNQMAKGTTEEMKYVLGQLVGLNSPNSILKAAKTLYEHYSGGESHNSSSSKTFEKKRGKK
Test: Mps-1 kinase assay (HTRF)
Format: biochemical

Structure (SMILES)	IC50
CNS(=O)(=O)c1cccc(-c2ccc3nc(Nc4cccc(F)c4C#N)nn3c2)c1 [Example 11.098, 3-{2-[(2-cyano-3-fluorophenyl)amino][1,2,4]triazolo[1,5-a]pyridin-6-yl}-N-methylbenzenesulfonamide]	97.6 nM
CC(C)(C)CC(=O)Nc1ccc(-c2ccc3nc(Nc4ccccc4C#N)nn3c2)cc1 [Example 11.099, N-(4-{2-[(2-cyanophenyl)amino][1,2,4]triazolo[1,5-a]pyridin-6-yl}phenyl)-3,3-dimethylbutanamide]	18.9 nM
CC(C)(C)CCC(=O)Nc1ccc(-c2ccc3nc(Nc4ccccc4C#N)nn3c2)cc1 [Example 11.100, N-(4-{2-[(2-cyanophenyl)amino][1,2,4]triazolo[1,5-a]pyridin-6-yl}phenyl)-4,4-dimethylpentanamide]	8.08 nM

Now from value to compound:

IC50	Structure (SMILES)
≤ 1 nM	CC(C)(C)CNC(=O)c1cccc(-c2ccc3nc(Nc4ccc(C(=O)NCC(C)(C)O)cc4OCC(F)(F)F)nn3c2)c1 [Example 11.095, 4-[(6-{3-[(2,2-dimethylpropyl)carbamoyl]phenyl}[1,2,4]tria-zolo[1,5-a]pyridin-2-yl)amino]-N-(2-hydroxy-2-methylpropyl)-3-(2,2,2-trifluoroethoxy)benzamide]
≤ 1 nM	CC(C)(O)CNC(=O)c1ccc(Nc2nc3ccc(-c4cccc(C(=O)NCC(F)(F)F)c4)cn3n2)c(OCC(F)(F)F)c1 [Example 11.096, N-(2-hydroxy-2-methylpropyl)-3-(2,2,2-trifluoroethoxy)-4-[(6-{3-[(2,2,2-trifluoroethyl)carbamoyl]phenyl}[1,2,4]triazolo [1,5-a]pyridin-2-yl)amino]benzamide]
2.53 nM	COc1cc(C(=O)NC(C)(C)C)ccc1Nc1nc2ccc(-c3ccc(NC(=O)CC(F)(F)F)cc3)cn2n1 [Example 11.101, N-tert-butyl-3-methoxy-4-[(6-{4-[(3,3,3-trifluoropropanoyl)amino]phenyl}[1,2,4]triazolo [1,5-a]pyridin-2-yl)amino]benzamide]
